Assay results published in ChEMBL document CHEMBL1141522, “Reduced cardiac side-effect potential by introduction of polar groups: discovery of NIBR-1282, an orally bioavailable CCR5 antagonist which is active in vivo” (Bioorg Med Chem Lett, 2008).
Values after ≈ are worked out from the molar mass of the structure shown. Active and inactive are the calls of the source. No cut-off for these calls is given here.

Key:
Heart [1] = assay: Toxicity in isolated rabbit heart model assessed as adverse side effect upto 0.5 uM; type: tissue-based, Oryctolagus cuniculus; details: ex_vivo
[2] = target: T1, C-C chemokine receptor type 5 (Homo sapiens, UniProt P51681); assay: Displacement of [125I]RANTES from human CCR5 expressed in CHO cells; type: cell-based
T1 sequence (P51681 whole entry): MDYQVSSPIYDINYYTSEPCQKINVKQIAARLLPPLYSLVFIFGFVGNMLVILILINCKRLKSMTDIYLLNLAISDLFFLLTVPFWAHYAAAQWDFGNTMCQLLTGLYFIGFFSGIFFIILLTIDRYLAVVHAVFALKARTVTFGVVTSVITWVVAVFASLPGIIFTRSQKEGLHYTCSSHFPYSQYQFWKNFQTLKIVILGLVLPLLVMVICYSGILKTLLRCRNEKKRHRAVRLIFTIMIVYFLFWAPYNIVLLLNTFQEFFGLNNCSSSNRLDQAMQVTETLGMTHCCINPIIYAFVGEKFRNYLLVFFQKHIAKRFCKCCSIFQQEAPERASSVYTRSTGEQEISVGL

[3] = target: T2, C-C chemokine receptor type 5 (Macaca fascicularis, UniProt P61814); assay: Displacement of radiolabeled MIP-1alpha from cynomolgus monkey CCR5 expressed in CHO cells; type: cell-based
Heart [4] = assay: Toxicity in isolated rabbit heart model assessed as adverse side effect upto 10 uM; type: tissue-based, Oryctolagus cuniculus
[5] = target: T1, C-C chemokine receptor type 5; assay: Antagonist activity at human CCR5 expressed in CHO cells assessed as MIP-1-alpha-induced Ca2+ mobilization; type: functional, cell-based
[6] = target: T2, C-C chemokine receptor type 5; assay: Antagonist activity at cynomolgus monkey CCR5 expressed in CHO cells assessed as MIP-1-alpha-induced Ca2+ mobilization; type: functional, cell-based
[7] = target: T1, C-C chemokine receptor type 5; assay: Antagonist activity at human CCR5 expressed in L1.2 cells assessed as MIP-1-alpha-induced Ca2+ mobilization; type: functional, cell-based
Cytochrome P450 1A2 = Cytochrome P450 1A2 (Homo sapiens, UniProt P05177); assay: Inhibition of CYP1A2; type: ADME
Cytochrome P450 1A2, sequence (P05177 whole entry): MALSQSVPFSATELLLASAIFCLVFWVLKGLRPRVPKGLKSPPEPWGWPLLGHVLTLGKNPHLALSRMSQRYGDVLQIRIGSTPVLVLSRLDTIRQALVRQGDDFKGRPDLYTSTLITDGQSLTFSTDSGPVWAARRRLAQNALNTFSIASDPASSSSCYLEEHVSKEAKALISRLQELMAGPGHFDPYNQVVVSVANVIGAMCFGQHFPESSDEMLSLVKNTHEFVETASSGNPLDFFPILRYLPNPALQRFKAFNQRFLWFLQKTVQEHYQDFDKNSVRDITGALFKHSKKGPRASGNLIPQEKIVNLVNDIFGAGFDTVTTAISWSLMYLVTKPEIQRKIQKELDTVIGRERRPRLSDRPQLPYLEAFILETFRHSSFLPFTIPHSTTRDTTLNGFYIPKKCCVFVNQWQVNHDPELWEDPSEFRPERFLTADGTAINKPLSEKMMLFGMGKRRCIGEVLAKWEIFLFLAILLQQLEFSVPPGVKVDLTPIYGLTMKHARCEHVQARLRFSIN

Cytochrome P450 2C9 = Cytochrome P450 2C9 (Homo sapiens, UniProt P11712); assay: Inhibition of CYP2C9; type: ADME
Cytochrome P450 2C19 = Cytochrome P450 2C19 (Homo sapiens, UniProt P33261); assay: Inhibition of CYP2C19; type: ADME
Cytochrome P450 2D6 = Cytochrome P450 2D6 (Homo sapiens, UniProt P10635); assay: Inhibition of CYP2D6; type: ADME
Cytochrome P450 3A4 = Cytochrome P450 3A4 (Homo sapiens, UniProt P08684); assay: Inhibition of CYP3A4; type: ADME
Cytochrome P450 3A4, sequence (P08684 whole entry): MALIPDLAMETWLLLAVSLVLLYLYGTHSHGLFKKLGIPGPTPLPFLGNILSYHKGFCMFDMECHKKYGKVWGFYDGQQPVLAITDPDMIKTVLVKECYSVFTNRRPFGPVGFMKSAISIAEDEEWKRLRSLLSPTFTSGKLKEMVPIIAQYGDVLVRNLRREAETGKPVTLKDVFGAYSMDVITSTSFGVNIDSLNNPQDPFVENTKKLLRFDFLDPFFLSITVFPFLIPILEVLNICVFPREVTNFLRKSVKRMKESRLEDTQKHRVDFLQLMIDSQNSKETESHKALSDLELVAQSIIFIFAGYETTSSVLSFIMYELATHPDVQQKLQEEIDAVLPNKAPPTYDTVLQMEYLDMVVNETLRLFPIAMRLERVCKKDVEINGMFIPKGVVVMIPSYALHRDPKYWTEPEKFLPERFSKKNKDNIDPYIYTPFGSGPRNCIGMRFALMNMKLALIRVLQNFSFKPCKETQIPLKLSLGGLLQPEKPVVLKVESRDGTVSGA

[8] = Dissociation constant, pKa of the compound; type: physicochemical
[9] = Partition coefficient, log P of the compound; type: physicochemical; details: octanol/water
[10] = Lipophilicity, log D at pH 6.8; type: physicochemical; details: buffer
[11] = Intrinsic clearance in human liver microsomes; type: ADME, Microsome
[12] = Intrinsic clearance in rat liver microsomes; type: ADME, Microsome
[13] = Solubility in water; type: physicochemical
[14] = Solubility at pH 7.4; type: physicochemical; details: buffer
[15] = Permeability from apical to basolateral side of human Caco-2 cell membranes; type: ADME, cell-based; details: read-out: permeability (converted)
[16] = Permeability from basolateral to apical side of human Caco-2 cell membranes; type: ADME, cell-based; details: read-out: permeability (converted)
[17] = Protein binding in human plasma; type: ADME, cell-free
[18] = Protein binding in rat plasma; type: ADME, cell-free
[19] = target: C-C chemokine receptor type 1 (Homo sapiens) (UniProt P32246); assay: Inhibition of CCR1 upto 1 uM
[20] = target: C-C chemokine receptor type 2 (Homo sapiens) (UniProt P41597); assay: Inhibition of CCR2 upto 1 uM
C-C chemokine receptor type 2 (Homo sapiens), sequence (P41597 whole entry, looked up): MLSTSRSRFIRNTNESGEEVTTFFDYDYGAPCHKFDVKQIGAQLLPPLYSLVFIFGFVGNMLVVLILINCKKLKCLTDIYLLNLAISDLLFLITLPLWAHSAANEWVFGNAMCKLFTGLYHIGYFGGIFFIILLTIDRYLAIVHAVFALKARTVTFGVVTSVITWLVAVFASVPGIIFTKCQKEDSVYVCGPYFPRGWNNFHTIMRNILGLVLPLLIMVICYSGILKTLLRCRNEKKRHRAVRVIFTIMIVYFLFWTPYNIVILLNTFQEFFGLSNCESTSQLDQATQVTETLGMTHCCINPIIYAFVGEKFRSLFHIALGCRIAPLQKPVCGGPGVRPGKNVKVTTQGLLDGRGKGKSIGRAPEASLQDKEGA

[21] = target: C-C chemokine receptor type 3 (Homo sapiens) (UniProt P51677); assay: Inhibition of CCR3 upto 1 uM
C-C chemokine receptor type 3 (Homo sapiens), sequence (P51677 whole entry): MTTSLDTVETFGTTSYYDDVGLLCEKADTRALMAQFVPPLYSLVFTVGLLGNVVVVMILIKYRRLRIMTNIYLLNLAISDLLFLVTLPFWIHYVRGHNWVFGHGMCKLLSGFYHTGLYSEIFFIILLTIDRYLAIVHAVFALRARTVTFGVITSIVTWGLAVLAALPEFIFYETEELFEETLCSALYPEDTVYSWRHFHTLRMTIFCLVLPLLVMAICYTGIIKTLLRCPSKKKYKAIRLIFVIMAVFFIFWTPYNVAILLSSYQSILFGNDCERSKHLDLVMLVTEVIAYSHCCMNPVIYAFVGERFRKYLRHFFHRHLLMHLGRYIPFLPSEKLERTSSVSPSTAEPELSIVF

[22] = target: C-C chemokine receptor type 4 (Homo sapiens) (UniProt P51679); assay: Inhibition of CCR4 upto 1 uM
[23] = target: C-C chemokine receptor type 6 (Homo sapiens) (UniProt P51684); assay: Inhibition of CCR6 upto 1 uM
[24] = target: C-C chemokine receptor type 7 (Homo sapiens) (UniProt P32248); assay: Inhibition of CCR7 upto 1 uM
[25] = target: C-X-C chemokine receptor type 1 (Homo sapiens) (UniProt P25024); assay: Inhibition of CXCR1 upto 1 uM
[26] = target: C-X-C chemokine receptor type 2 (Homo sapiens) (UniProt P25025); assay: Inhibition of CXCR2 upto 1 uM
[27] = target: C-X-C chemokine receptor type 3 (Homo sapiens) (UniProt P49682); assay: Inhibition of CXCR3 upto 1 uM
C-X-C chemokine receptor type 3 (Homo sapiens), sequence (P49682 whole entry): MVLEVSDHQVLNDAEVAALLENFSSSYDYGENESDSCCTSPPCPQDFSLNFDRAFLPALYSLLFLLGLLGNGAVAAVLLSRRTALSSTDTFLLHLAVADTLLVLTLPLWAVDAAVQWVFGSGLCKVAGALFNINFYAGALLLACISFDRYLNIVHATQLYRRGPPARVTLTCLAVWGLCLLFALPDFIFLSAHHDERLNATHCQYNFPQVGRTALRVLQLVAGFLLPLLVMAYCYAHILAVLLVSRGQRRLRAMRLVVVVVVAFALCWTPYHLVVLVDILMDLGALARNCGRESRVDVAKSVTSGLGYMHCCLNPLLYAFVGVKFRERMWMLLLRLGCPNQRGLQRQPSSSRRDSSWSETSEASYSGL

[28] = target: C-X-C chemokine receptor type 4 (Homo sapiens) (UniProt P61073); assay: Inhibition of CXCR4 upto 1 uM
C-X-C chemokine receptor type 4 (Homo sapiens), sequence (P61073 whole entry): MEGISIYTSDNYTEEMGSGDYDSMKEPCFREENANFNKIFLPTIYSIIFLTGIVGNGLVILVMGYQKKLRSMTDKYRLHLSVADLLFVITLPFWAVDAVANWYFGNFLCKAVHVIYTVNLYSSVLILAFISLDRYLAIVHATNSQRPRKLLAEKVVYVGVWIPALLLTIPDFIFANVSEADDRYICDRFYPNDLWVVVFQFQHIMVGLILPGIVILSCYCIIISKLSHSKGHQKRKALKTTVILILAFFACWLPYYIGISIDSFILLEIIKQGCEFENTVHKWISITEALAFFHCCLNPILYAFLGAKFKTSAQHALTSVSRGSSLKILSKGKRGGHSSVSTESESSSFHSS

[29] = target: C-X-C chemokine receptor type 6 (Homo sapiens) (UniProt O00574); assay: Inhibition of CXCR6 upto 1 uM
C-X-C chemokine receptor type 6 (Homo sapiens), sequence (O00574 whole entry, looked up): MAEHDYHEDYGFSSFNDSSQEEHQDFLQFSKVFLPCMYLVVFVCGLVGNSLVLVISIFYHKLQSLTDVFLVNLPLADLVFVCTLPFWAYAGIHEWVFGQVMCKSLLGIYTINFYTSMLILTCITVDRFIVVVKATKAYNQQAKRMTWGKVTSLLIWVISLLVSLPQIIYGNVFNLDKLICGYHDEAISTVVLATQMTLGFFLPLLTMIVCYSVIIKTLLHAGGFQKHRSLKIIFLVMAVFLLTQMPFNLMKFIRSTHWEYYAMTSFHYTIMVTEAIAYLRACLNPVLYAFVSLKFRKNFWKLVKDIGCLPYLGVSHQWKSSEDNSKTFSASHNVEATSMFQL

[30] = Inhibition of muscarinic acetylcholine receptor at 1 uM
[31] = AUC in rat at 1 mg/kg, po; type: ADME, organism-based; set-up: dose 1 mg/kg, route oral; details: plasma
[32] = Cmax in rat at 1 mg/kg, po; type: ADME, organism-based; set-up: dose 1 mg/kg, route oral; details: in vivo
[33] = Tmax in po dosed rat; type: ADME, organism-based; details: in vivo
[34] = Half life in po dosed rat; type: ADME, organism-based; details: in vivo
[35] = Oral bioavailability in rat; type: ADME, organism-based; details: in vivo
[36] = AUC in cynomolgus monkey at 1 mg/kg, po; type: ADME, organism-based, Macaca fascicularis; set-up: dose 1 mg/kg, route oral; details: plasma
[37] = Cmax in cynomolgus monkey at 1 mg/kg, po; type: ADME, organism-based, Macaca fascicularis; set-up: dose 1 mg/kg, route oral; details: in vivo
[38] = Tmax in po dosed cynomolgus monkey; type: ADME, organism-based, Macaca fascicularis; details: in vivo
[39] = Half life in po dosed cynomolgus monkey; type: ADME, organism-based, Macaca fascicularis; details: in vivo
[40] = Oral bioavailability in cynomolgus monkey; type: ADME, organism-based, Macaca fascicularis; details: in vivo
[41] = AUC in dog at 1 mg/kg, po; type: ADME, organism-based, Canis lupus familiaris; set-up: dose 1 mg/kg, route oral; details: plasma
[42] = Cmax in dog at 1 mg/kg, po; type: ADME, organism-based, Canis lupus familiaris; set-up: dose 1 mg/kg, route oral; details: in vivo
[43] = Tmax in po dosed dog; type: ADME, organism-based, Canis lupus familiaris; details: in vivo
[44] = Half life in po dosed dog; type: ADME, organism-based, Canis lupus familiaris; details: in vivo
[45] = Oral bioavailability in dog; type: ADME, organism-based, Canis lupus familiaris; details: in vivo
[46] = Mean residence time in cynomolgus monkey; type: ADME, organism-based, Macaca fascicularis; details: in vivo
[47] = Mean residence time in dog; type: ADME, organism-based, Canis lupus familiaris; details: in vivo
Cynomolgus monkey [48] = assay: Prolongation of graft survival in cynomolgus monkey kidney transplantation model at 20 mg/kg, sc bid; type: functional, Macaca fascicularis; details: route subcutaneous
Cynomolgus monkey [49] = assay: Prolongation of graft survival in cynomolgus monkey kidney transplantation model at 20 mg/kg, sc bid in presence of cyclosporine A; type: functional, Macaca fascicularis; details: route subcutaneous
Cynomolgus monkey [50] = assay: Prolongation of graft survival in cynomolgus monkey kidney transplantation model at 40 mg/kg, po qd in presence of cyclosporine A; type: functional, Macaca fascicularis
[51] = target: C-C chemokine receptor type 5 (Mus musculus) (UniProt P51682); assay: Binding affinity to mouse CCR5
[52] = target: Voltage-gated inwardly rectifying potassium channel KCNH2 (Homo sapiens, UniProt Q12809); assay: Displacement of [3H]dofetilide from human ERG expressed in HEK293 cell membranes
Voltage-gated inwardly rectifying potassium channel KCNH2, sequence (Q12809 whole entry): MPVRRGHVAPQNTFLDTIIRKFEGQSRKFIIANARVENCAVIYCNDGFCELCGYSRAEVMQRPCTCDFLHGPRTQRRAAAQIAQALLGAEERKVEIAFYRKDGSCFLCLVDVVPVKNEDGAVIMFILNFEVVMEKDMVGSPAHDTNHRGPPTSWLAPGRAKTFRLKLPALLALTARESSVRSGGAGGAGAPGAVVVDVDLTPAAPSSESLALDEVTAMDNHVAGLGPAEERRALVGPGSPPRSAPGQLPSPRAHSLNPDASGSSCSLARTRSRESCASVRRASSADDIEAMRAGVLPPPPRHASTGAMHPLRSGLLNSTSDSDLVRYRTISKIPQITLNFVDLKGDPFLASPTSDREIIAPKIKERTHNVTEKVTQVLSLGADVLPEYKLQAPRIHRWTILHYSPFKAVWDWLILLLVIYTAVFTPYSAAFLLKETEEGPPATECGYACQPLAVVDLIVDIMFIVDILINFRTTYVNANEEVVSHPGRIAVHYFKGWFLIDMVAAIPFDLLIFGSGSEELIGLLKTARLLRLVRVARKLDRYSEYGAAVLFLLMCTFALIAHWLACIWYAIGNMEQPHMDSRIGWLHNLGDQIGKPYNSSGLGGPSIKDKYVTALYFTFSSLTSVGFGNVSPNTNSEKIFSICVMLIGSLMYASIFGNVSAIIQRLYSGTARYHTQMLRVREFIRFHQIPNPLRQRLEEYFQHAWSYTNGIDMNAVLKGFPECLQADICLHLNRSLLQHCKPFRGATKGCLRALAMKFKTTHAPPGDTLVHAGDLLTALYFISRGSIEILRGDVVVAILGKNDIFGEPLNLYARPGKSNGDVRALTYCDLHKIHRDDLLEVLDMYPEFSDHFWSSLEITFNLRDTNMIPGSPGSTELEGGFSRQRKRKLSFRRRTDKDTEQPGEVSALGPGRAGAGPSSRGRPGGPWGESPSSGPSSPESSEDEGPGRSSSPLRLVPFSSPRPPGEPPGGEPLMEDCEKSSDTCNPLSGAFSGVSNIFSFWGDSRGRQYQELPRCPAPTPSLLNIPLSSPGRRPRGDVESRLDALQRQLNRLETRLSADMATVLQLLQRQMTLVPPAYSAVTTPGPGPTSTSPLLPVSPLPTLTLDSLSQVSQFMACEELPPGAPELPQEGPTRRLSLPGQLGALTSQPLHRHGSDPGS

Heart [53] = assay: Toxicity in isolated rabbit heart model assessed as adverse side effect upto 1.5 uM; type: tissue-based, Oryctolagus cuniculus
Heart [54] = assay: Toxicity in isolated rabbit heart model assessed as adverse side effect upto 1.0 uM; type: tissue-based, Oryctolagus cuniculus; details: ex_vivo
Heart [55] = assay: Toxicity in isolated rabbit heart model assessed as adverse side effect upto 5.0 uM; type: tissue-based, Oryctolagus cuniculus

Cc1cccc(C)c1C(=O)N1CCC(C)(N2CCC(N(c3ccccc3)c3cccnc3)CC2)CC1
Activity (Heart [1]): Non-toxic
IC50 [2]: 0.5 nM
IC50 [3]: 1.1 nM

Cc1cc[n+]([O-])c(C)c1C(=O)N1CCC(C)(N2CCC(N(c3ccccc3)c3cccnc3)CC2)CC1
Activity (Heart [4]): Non-toxic
IC50 [5]: 43.6 nM
IC50 [6]: 64 nM
IC50 [7]: 16.2 nM
IC50 (Cytochrome P450 1A2): > 10000 nM
IC50 (Cytochrome P450 2C9): > 10000 nM
IC50 (Cytochrome P450 2C19): > 10000 nM
IC50 (Cytochrome P450 2D6): > 10000 nM
IC50 (Cytochrome P450 3A4): 5300 nM
pKa [8]: 5.5
logP [9]: 2.2
logD [10]: 0.8
microsomal CLint [11]: < 15 µL/min/mg
microsomal CLint [12]: < 15 µL/min/mg
solubility [13]: 1000 µg/mL (≈ 2000 µM)
solubility [14]: > 12500 µg/mL
Papp A→B [15]: 0.667 ×10⁻⁶ cm/s
Papp B→A [16]: 10.8 ×10⁻⁶ cm/s
fraction unbound [17]: 0.62
fraction unbound [18]: 0.48
Activity [19]: inactive
Activity [20]: inactive
Activity [21]: inactive
Activity [22]: inactive
Activity [23]: inactive
Activity [24]: inactive
Activity [25]: inactive
Activity [26]: inactive
Activity [27]: inactive
Activity [28]: inactive
Activity [29]: inactive
Activity [30]: inactive
AUC [31]: 41 ng·h/mL
Cmax [32]: 5.8 ng/mL
Tmax [33]: 0.4 h
half-life [34]: 8.1 h
bioavailability [35]: 22%
AUC [36]: 503 ng·h/mL
Cmax [37]: 93 ng/mL
Tmax [38]: 0.5 h
half-life [39]: 6.3 h
bioavailability [40]: 43%
AUC [41]: 278 ng·h/mL
Cmax [42]: 84 ng/mL
Tmax [43]: 0.6 h
half-life [44]: 7.9 h
bioavailability [45]: 56%
MRT [46]: 6 h
MRT [47]: 8 h
Activity (Cynomolgus monkey [48]): 6 days
Activity (Cynomolgus monkey [49]): >100 days
Activity (Cynomolgus monkey [50]): 39 days
Activity [51]: inactive
IC50 [2]: 5.1 nM
IC50 [3]: 8.1 nM

CC1(N2CCC(N(c3ccccc3)c3cccnc3)CC2)CCN(C(=O)c2c(Cl)cncc2Cl)CC1
Activity (Heart [1]): Non-toxic
IC50 [2]: 0.8 nM
IC50 [3]: 3.2 nM

Cc1ccnc(C)c1C(=O)N1CCC(C)(N2CCC(N(c3ccccc3)c3ccccc3)CC2)CC1
Activity (Heart [1]): Non-toxic
IC50 [52]: 570 nM

Cc1nc[n+]([O-])c(C)c1C(=O)N1CCC(C)(N2CCC(N(c3ccccc3)c3ccccc3)CC2)CC1
IC50 [52]: 1200 nM
Activity (Heart [53]): Non-toxic

Cc1ccnc(C)c1C(=O)N1CCC(C)(N2CCC(N(c3ccccc3)c3cccnc3)CC2)CC1
Activity (Heart [54]): Non-toxic
IC50 [2]: 0.9 nM
IC50 [3]: 0.8 nM

CC1(N2CCC(N(c3ccccc3)c3cccnc3)CC2)CCN(C(=O)c2cccc3ccccc23)CC1
Activity (Heart [54]): Non-toxic
IC50 [2]: 1.3 nM
IC50 [3]: 3.6 nM

Cc1cc[n+]([O-])c(C)c1C(=O)N1CCC(C)(N2CCC(N(c3ccccc3)c3ccccn3)CC2)CC1
Activity (Heart [54]): Non-toxic
IC50 [2]: 1.8 nM
IC50 [3]: 12 nM

Cc1cccc(C)c1C(=O)N1CCC(C)(N2CCC(N(Cc3ccccc3)c3ccccc3)CC2)CC1
IC50 [52]: 670 nM
Activity (Heart [53]): Non-toxic

Cc1ncnc(C)c1C(=O)N1CCC(C)(N2CCC(N(c3ccccc3)c3ccccc3)CC2)CC1
Activity (Heart [1]): Non-toxic

Cc1cc[n+]([O-])c(C)c1C(=O)N1CCC(C)(N2CCC(N(c3ccccc3)c3ccccc3)CC2)CC1
Activity (Heart [1]): Non-toxic
IC50 [3]: 3.4 nM

Cc1cccnc1C(=O)N1CCC(C)(N2CCC(N(c3ccccc3)c3cccnc3)CC2)CC1
Activity (Heart [1]): Non-toxic
IC50 [2]: 6.5 nM
IC50 [3]: 39 nM

Cc1nc(CN(c2ccccc2)C2CCN(C3(C)CCN(C(=O)c4c(C)cc[n+]([O-])c4C)CC3)CC2)cs1
Activity (Heart [55]): Non-toxic
IC50 [52]: 12200 nM
IC50 [2]: 1.7 nM
IC50 [3]: 107 nM

Cc1cccc(C)c1C(=O)N1CCC(C)(N2CCC(N(c3ccccc3)c3ccccc3)CC2)CC1
Activity (Heart [54]): Non-toxic
IC50 [52]: 150 nM

CC1(N2CCC(N(c3ccccc3)c3cccnc3)CC2)CCN(C(=O)c2c(Cl)c[n+]([O-])cc2Cl)CC1
Activity (Heart [54]): Non-toxic
IC50 [2]: 1 nM
IC50 [3]: 4.2 nM

Cc1cc[n+]([O-])c(C)c1C(=O)N1CCC(C)(N2CCC(N(Cc3cccc(C#N)c3)c3ccccc3)CC2)CC1
Activity (Heart [54]): Non-toxic

Cc1cc[n+]([O-])c(C)c1C(=O)N1CCC(C)(N2CCC(N(Cc3ccccc3)c3ccccc3)CC2)CC1
Activity (Heart [1]): Non-toxic

Cc1cccc(C)c1C(=O)N1CCC(C)(N2CCC(N(c3ccccc3)c3ccncc3)CC2)CC1
Activity (Heart [1]): Non-toxic
IC50 [2]: 2 nM
IC50 [3]: 9.8 nM
